Reference: patent US9938316B2, “Selective inhibitors of α2 isoform of Na,K-ATPase and use thereof for reduction of intra-ocular pressure and as cardiotonic agents” (priority 2013, dated 2018)
Like-named read-outs stand apart in the source and are kept apart here.

Experiments:
[1] = test system: intra-ocular pressure (IOP) of rabbits; test: 4-aminopyridine (4AP)-induced ocular hypertension in rabbits; assay type: in vivo, New Zealand white rabbits
Description: Intra-ocular pressure in rabbits was measured using of a “Reichert Model 30™ Pneumatonometer” after anesthetizing the cornea with local anesthetic.
Since the IOP reflects a balance of the inflow and outflow of aqueous humour, reduction of the increased 4AP-induced inflow of aqueous humour by cardiac glycosides should prevent the increase in IOP. Thus, the standard experimental design to test effects of cardiac glycosides involved topical application of the compounds (1 drop in each eye) 30 minutes prior to application of 4AP and measurement of IOP every 30 minutes over five hours. […] Each experiment was done three times, but the figures depict a representative experiment using a different rabbit for each concentration of the cardiac glycoside.
DGlyN or DMe (0.1 or 1 mM) were applied one hour after the first application of 4AP, which was added every two hours.
New Zealand white rabbits (3-3.5 kg) about 1 year old, of either sex, were housed individually in separate cages in animal room conditions on a reversed, 12-hour dark/light cycle. For the experiments the animals were transferred to rabbit restrainers in a quiet and calm atmosphere (FIG. 1). […] Animal care and treatment were subject to the approval of the institutional committee for animal experiments, Weizmann Institute IACUC permission (no 04270911-2).
IOP (mm Hg) of rabbits was measured using a calibrated Pneumatonometer (Model 30, Reichert technologies, FIG. 1). A local anesthetic Oxybuprocaine HCl (0.4%, 25 μl) was applied to each cornea about a minute before IOP measurements. Two baseline IOP readings were taken before topical administration of the CG (or PBS as control) and after half an hour (Zero time). […] At zero time one drop of 4AP (40 mg/ml, 30 μl) or IB-MECA (1 μM, 30 μl) was administered to both eyes of each rabbit IOP measurements were made at different times as indicated in each experiment. In the experiments for which the IOP was elevated for several hours, 4AP was added every […] or IB-MECA every 2 hours. […] In all cases the figures depict the average effect on IOP (i.e for four or six eyes) compared to control ±SEM. […] Significance of differences from the control was calculated by the unpaired Students t-test (p values), p values <0.05 were considered significant. Corneal thickness (μm) was measured using an ultrasonic pachymeter (Sonogage pachometer, Cleveland, USA), before and during the experiment with CG and 4AP treatments. The values represent averages of three independent measurements for each eye.

[2] = target: Na,K-ATPase α1β1 isoform complex (Homo sapiens, UniProt P05023); test: biochemical; settings: α1β1
Description: (§1) Methods for transformation, culture of P. pastoris clones, protein expression of Na,K-ATPase human isoforms (α1β1, α2β1, α3β1), membrane preparation, solubilization of membranes in DDM, and purification on BD-Talon beads have been described in detail (6-9, 11, 25). In initial experiments the three purified isoform complexes (0.3-0.5 mg/ml) were eluted from the BD-Talon beads in a solution containing Imidazole 170 mM, NaCl 100 mM; Tricine.HCl 20 mM pH 7.4; C12E8, 0.1 mg/ml; SOPS 0.07 mg/ml cholesterol 0.01 mg/ml, glycerol 25%. In later experiments the isoforms complexes were reconstituted with purified FXYD1 on the BD-Talon beads together as described in detail in (10, 11) prior to elution of α1β1FXYD1, α2β1FXYD1 and α3β1FXYD1 complexes. The proteins were stored at −80° C. Protein concentration was determined with BCA (B9643 Sigma).
(§2) Inhibition of Na,K-ATPase activity of the detergent-soluble α1β1, α2β1, and α3β1 complexes by CG's was determined as described (6) using either the αβ or αβFXYD1 complexes. […] The K0.5K was estimated by varying K concentration in a medium containing a fixed total K+choline chloride of 60 mM, and constant NaCl of 140 mM. Curves were fitted to the Hill function v=Vmax*[S]^n/([S]^n+K^n), where S is the K concentration, n is the Hill coefficient and K^n is K0.5K. For comparison of different curves the ratio v/Vmax for each curve was calculated and replotted. In experiments to assess inhibition of Na,K-ATPase activity by cardiac glycosides of the present invention, the percent inhibition VCG/V0 was calculated and Ki values were obtained by fitting the data to the function VCG/V0=Ki/([CG]+Ki)+ c. Inhibition was estimated in 3-8 separate experiments and average Ki values ±SEM were calculated. Significance of differences between Kiα1 and Kiα2 was calculated by the unpaired Student's t-test (p values). […] P values <0.05 were considered significant.

[3] = target: Na,K-ATPase α2β1 isoform complex (Homo sapiens, UniProt P50993); test: biochemical; assay type: biochemical; settings: α2β1
Description: as §1, §2

[4] = test system: Na,K-ATPase α2β1 isoform complex; test: biochemical; assay type: biochemical, human; settings: Kiα1β1/Kiα2β1
Description: as §1, §2

cornea of rabbits = test: Pachymetry: corneal thickness and local toxicity after topical cardiac glycosides; assay type: in vivo, New Zealand white rabbits; settings: for Corneal thickness: 1 mM
Description: Thus, in this study, no change in corneal thickness was detected (Table 3), indicative of lack of local toxic effects. […] Similar results were obtained with CG's applied after IB-MECA.
IOP (mm Hg) of rabbits was measured using a calibrated Pneumatonometer (Model 30, Reichert technologies, FIG. 1). A local anesthetic Oxybuprocaine HCl (0.4%, 25 μl) was applied to each cornea about a minute before IOP measurements. Two baseline IOP readings were taken before topical administration of the CG (or PBS as control) and after half an hour (Zero time). […] At zero time one drop of 4AP (40 mg/ml, 30 μl) or IB-MECA (1 μM, 30 μl) was administered to both eyes of each rabbit IOP measurements were made at different times as indicated in each experiment. In the experiments for which the IOP was elevated for several hours, 4AP was added every 1.5 hours or IB-MECA every 2 hours. […] Each experiment was repeated two or three times with similar results. In all cases the figures depict the average effect on IOP (i.e for four or six eyes) compared to control ±SEM. Where error bars are not seen in the figures, the errors are smaller than the symbols used. Significance of differences from the control was calculated by the unpaired Students t-test (p values), p values <0.05 were considered significant. Corneal thickness (μm) was measured using an ultrasonic pachymeter (Sonogage pachometer, Cleveland, USA), before and during the experiment with CG and 4AP treatments. The values represent averages of three independent measurements for each eye.

| SMILES | Ki ([2]; Ki ± S.E. α1, Table 2) [nM] | Ki ([3]; Ki ± S.E. α2, Table 2) [nM] | Selectivity ratio Ki α1/α2 ± S.E. [4] | other results |
| --- | --- | --- | --- | --- |
| Nc1ccncc1 [4AP, 4-aminopyridine, reference compound] | – | – | – | Rise of IOP ([1]; one or two drops (40 mg/ml) in each eye): 3-6 mm Hg |
| CC1CN(C(C)C(N)=O)CCC(OC2C(O)CC(OC3C(O)CC(OC4CCC5(C)C(CCC6C5CC(O)C5(C)C(C7=CC(=O)OC7)CCC65O)C4)OC3C)OC2C)O1 (stereo not drawn) [DAlaN] | 232 ± 28 | 67 ± 8.1 | 3.46 ± 0.59 | – |
| CC1CN(CCN)CCC(OC2C(O)CC(OC3C(O)CC(OC4CCC5(C)C(CCC6C5CC(O)C5(C)C(C7=CC(=O)OC7)CCC65O)C4)OC3C)OC2C)O1 (stereo not drawn) [DEtDA] | 69 ± 10 | 16.7 ± 2.1 | 4.10 ± 0.82 | – |
| COC(=O)CN1CCC(OC2C(O)CC(OC3C(O)CC(OC4CCC5(C)C(CCC6C5CC(O)C5(C)C(C7=CC(=O)OC7)CCC65O)C4)OC3C)OC2C)OC(C)C1 (stereo not drawn) [DGlMe] | 540 ± 102 | 128 ± 11 | 4.22 ± 0.88 | – |
| CC1CN(CC(=O)O)CCC(OC2C(O)CC(OC3C(O)CC(OC4CCC5(C)C(CCC6C5CC(O)C5(C)C(C7=CC(=O)OC7)CCC65O)C4)OC3C)OC2C)O1 (stereo not drawn) [DGly] | 124 ± 8.6 | 25 ± 3.9 | 5.1±0.54 | – |
| CC1CN(O)CCC(OC2C(O)CC(OC3C(O)CC(OC4CCC5(C)C(CCC6C5CC(O)C5(C)C(C7=CC(=O)OC7)CCC65O)C4)OC3C)OC2C)O1 (stereo not drawn) [DOH] | 311 ± 18.5 | 134 ± 35 | 2.32 ± 0.62 | – |
| CC1CN(CCC(N)=O)CCC(OC2C(O)CC(OC3C(O)CC(OC4CCC5(C)C(CCC6C5CC(O)C5(C)C(C7=CC(=O)OC7)CCC65O)C4)OC3C)OC2C)O1 (stereo not drawn) [DPrN] | 249 ± 37 | 47 ± 7.8 | 5.28±0.75 | – |
| CC1CN(NC(N)=O)CCC(OC2C(O)CC(OC3C(O)CC(OC4CCC5(C)C(CCC6C5CC(O)C5(C)C(C7=CC(=O)OC7)CCC65O)C4)OC3C)OC2C)O1 (stereo not drawn) [DSCar] | 102 ± 23 | 20 ± 3.6 | 4.98±1.2 | – |
| CC1CN(C(CO)C(N)=O)CCC(OC2C(O)CC(OC3C(O)CC(OC4CCC5(C)C(CCC6C5CC(O)C5(C)C(C7=CC(=O)OC7)CCC65O)C4)OC3C)OC2C)O1 (stereo not drawn) [DSerN] | 242 ± 15 | 144 ± 3.5 | 1.68 ± 0.13 | – |
| CC1CN(C(CO)C(=O)O)CCC(OC2C(O)CC(OC3C(O)CC(OC4CCC5(C)C(CCC6C5CC(O)C5(C)C(C7=CC(=O)OC7)CCC65O)C4)OC3C)OC2C)O1 (stereo not drawn) [DSer] | 316 ± 109 | 145 ± 28.5 | 2.18 ± 0.86 | – |
| C[C@H]1O[C@@H](O[C@H]2[C@@H](O)C[C@H](O[C@H]3CC[C@@]4(C)[C@H](CC[C@@H]5[C@@H]4C[C@@H](O)[C@]4(C)[C@@H](C6=CC(=O)OC6)CC[C@]54O)C3)O[C@@H]2C)C[C@H](O)[C@@H]1O [Dbis, digoxigenin bis digitoxide, reference compound] | – | – | 2.65 ± 0.81 | Ki ([2]; Table 2, read-out: Ki ± S.E. α1): 196 ± 8.5 nM; Ki ([3]; Table 2, read-out: Ki ± S.E. α2): 74 ± 5 nM |
| CC1CN(CC(=O)O)CCC(OC2C(O)CC(OC3CCC4(C)C(CCC5C4CC(O)C4(C)C(C6=CC(=O)OC6)CCC54O)C3)OC2C)O1 (stereo not drawn) [DbisGly] | 80 ± 5.5 | 34.9 ± 12 | 2.29 ± 0.80 | – |
| C[C@]12CC[C@H](O)C[C@H]1CC[C@@H]1[C@@H]2C[C@@H](O)[C@]2(C)[C@@H](C3=CC(=O)OC3)CC[C@]12O [Digoxigenin, digoxigenin, reference compound] | 139 ± 17 | 130 ± 13.5 | – | Time IOP is maintained at the low level ([1]; 1 mM, single drop, 4AP every two hours): about 2 hours |
| C[C@@H]1O[C@@H](O[C@H]2C[C@@H](O)[C@]3(CO)[C@H]4[C@H](O)C[C@]5(C)[C@@H](C6=CC(=O)OC6)CC[C@]5(O)[C@@H]4CC[C@]3(O)C2)[C@H](O)[C@H](O)[C@H]1O [Ouabain, ouabain, reference compound] | – | – | – | Effect on 4AP-induced rise in IOP ([1]; 1 mM, 1 drop topically 30 minutes prior to 4AP): somewhat reduced IOP; Effect on 4AP-induced rise in IOP ([1]; concentrations lower than 1 mM, topically 30 minutes prior to 4AP): poorly effective; Wash-out time/rate compared with other cardiac glycosides ([1]; equal concentrations, 4AP every two hours): washed out at a rate between that of digoxin and digoxigenin; Corneal thickness (cornea of rabbits; left eye, 0 h): 455 microns; Corneal thickness (cornea of rabbits; left eye, 2 h): 409 microns; Corneal thickness (cornea of rabbits; left eye, 4 h): 422 microns; Corneal thickness (cornea of rabbits; right eye, 0 h): 461 microns; Corneal thickness (cornea of rabbits; right eye, 2 h): 405 microns; Corneal thickness (cornea of rabbits; right eye, 4 h): 414 microns; Corneal thickness (in words) (cornea of rabbits; over 4 hours, after 4AP, Digoxin 1 mM, DGlyN 0.5 mM, DMe 0.5 mM, ouabain 1 mM): not significantly affected; Redness or local irritation in conjunctiva or cornea (cornea of rabbits; topical, after 4AP): neither redness nor local irritation were observed |
